Laboratory results published in patent publication US9845306B2, “Cationic lipid” (Kyowa Hakko Kirin Co., Ltd., priority 2010, dated 2017).

assay: Average particle diameter of the liposomes in each preparation (Zetasizer Nano ZS); format: physicochemical; settings: liposome preparation of Example 118: compound/PEG-DMPE/DSPC/cholesterol with apo-b siRNA
Description: Preparations were produced using the compounds obtained in Examples 1 to 117, as follows.
Anti-APO-B siRNA was used as the nucleic acid. Anti-APO-B siRNA suppresses expression of an apolipoprotein-B (hereinafter, “apo-b”) gene and has a sense strand with the base sequence 5′-GmUCAmUCACACmUGAAmUACCAAmU-3′ (the sugars attached to the bases appended with m are 2′-O-methyl-substituted riboses), and an antisense strand with the base sequence 5′-[…]-3′ (the 5′-end is phosphorylated). The sense strand and the antisense strand were obtained from Nippon EGT or Hokkaido System Science Co., Ltd., and annealed to prepare the nucleic acid (hereinafter, “apo-b siRNA”).
A solution comprising the constituent components of a lipid membrane was prepared by dissolving each of the weighed samples in 90 vol % ethanol in 8.947/1.059/5.708/13.697 mmol/L [compounds 1 to 117 obtained in Examples 1 to 117/1,2-dimyristoyl-sn-glycero-3-phosphoethanolamine-A-(methoxy(polyethylene glycol)-2000) (PEG-DMPE, N-(carbonylmethoxypolyethylene glycol 2000)-1,2-dimyristoyl-sn-glycero-3-phosphoethanolamine sodium salt, NOF Corporation)/distearoylphosphatidyl choline (DSPC, 1,2-distearoyl-sn-glycero-3-phosphocholine, NOF Corporation)/cholesterol (Avanti Polar Lipids)]. Separately, apo-b siRNA/distilled water (24 mg/mL) was diluted with a Tris-EDTA buffer (200 mM Tris-HCl, 20 mM EDTA, Invitrogen) and a 20 mM citric acid buffer (pH 5.0) to prepare a 1.5 mg/mL apo-b siRNA aqueous solution (2 mM Tris-EDTA buffer, pH 5.0).
The resulting lipid solution was heated to 37° C., and a […] portion was transferred to a preparation container. The apo-b siRNA aqueous solution (100 μL) was then added thereto while being stirred. Then, a 20 mM citric acid buffer (containing 300 mM NaCl, pH 6.0; 200 μL) was added to the lipid nucleic acid mixed suspension (200 μL) while being stirred. The siRNA concentration was brought to 10 μM by dropping a Dulbecco phosphate buffer (DPBS, Invitrogen; 662 μL), and preparations (compositions comprising compounds 1 to 117 and the nucleic acid) were obtained.
The average particle diameter of the liposomes in each preparation was measured with a particle diameter measurement device (Malvern; Zetasizer Nano ZS).

Compared with `CCCCC/C=C\C/C=C\CCCCCCCC(=O)OC1CN(CC(O)CO)C[C@H]1OC(=O)CCCCCCC/C=C\C/C=C\CCCCC` (stereo partly drawn) [Compound 53, (3R,4R)-1-(2,3-diHydroxypropyl)pyrrolidine-3,4-diyl di((9Z,12Z)-octadec-9,12-enoate)], `CCCCC/C=C\C/C=C\CCCCCCCC(=O)OC1CN(C(=O)CN)C[C@H]1OC(=O)CCCCCCC/C=C\C/C=C\CCCCC` (stereo partly drawn) [Compound 65, (3R,4R)-1-(2-aminoacetyl)pyrrolidine-3,4-diyl di((9Z,12Z)-octadec-9,12-enoate)] is lower in “Particle diameter of Preparetion” value: 152.4 nm for the first, 128.9 nm for the second.

Going from `CCCCC/C=C\C/C=C\CCCCCCCCO[C@H]1CNC[C@@H]1OCCCCCCCC/C=C\C/C=C\CCCCC` [Compound 43, (3S,4S)-3,4-bis((9Z,12Z)-Octadec-9,12-dienyloxy)pyrrolidine] to `CCCCC/C=C\C/C=C\CCCCCCCCO[C@H]1CN(C)C[C@@H]1OCCCCCCCC/C=C\C/C=C\CCCCC` [Compound 50, (3S,4S)-1-Methyl-3,4-bis((9Z,12Z)-octadec-9,12-dienyloxy)pyrrolidine], the “Particle diameter of Preparetion” value falls from 150.0 nm to 129.2 nm.

Going from `CCCCC/C=C\C/C=C\CCCCCCCC(=O)OC1CN(C(=O)[C@@H](N)CCCCN)C[C@H]1OC(=O)CCCCCCC/C=C\C/C=C\CCCCC` (stereo partly drawn) [Compound 66, (3R,4R)-1-((S)-2,6-Diaminohexanoyl)pyrrolidine-3,4-diyl di((9Z,12Z)-octadec-9,12-enoate)] to `CCCCC/C=C\C/C=C\CCCCCCCCCCOCC1CN(C(=O)[C@@H](N)CCCCN)C[C@H]1COCCCCCCCCCC/C=C\C/C=C\CCCCC` (stereo partly drawn) [Compound 115, trans-1-((S)-2,6-Diaminohexanoyl)-3,4-bis(((11Z,14Z)-icos-11,14-dienyloxy)methyl) pyrrolidine], the “Particle diameter of Preparetion” value rises from 137.4 nm to 152.8 nm.

Going from `CCCCC/C=C\C/C=C\CCCCCCCCO[C@@H]1CN(CC(C)O)C[C@H]1OCCCCCCCC/C=C\C/C=C\CCCCC` (mixture of isomers) [Compound 54, 1-((3R,4R)-3,4-bis((9Z,12Z)-Octadec-9,12-dienyloxy)pyrrolidine-1-yl)propan-2-ol] to `CCCCC/C=C\C/C=C\CCCCCCCCOC1CN(CC(O)COC)C[C@H]1OCCCCCCCC/C=C\C/C=C\CCCCC` (stereo partly drawn) [Compound 55, 1-(3R,4R)-3,4-bis(((9Z,12Z)-Octadec-9,12-dienyloxy)pyrrolidine-1-yl)-3-methoxypropan-2-ol], the “Particle diameter of Preparetion” value falls from 148.9 nm to 139.6 nm.

First: CCCCC/C=C\C/C=C\CCCCCCCCOC1CN(CCC(=O)N(C)C)C[C@H]1OCCCCCCCC/C=C\C/C=C\CCCCC (stereo partly drawn) [Compound 58, 3-((3R,4R)-3,4-bis((9Z,12Z)-Octadec-9,12-dienyloxy)pyrrolidin-1-yl)-N,N-dimethyl propanamide]
Second: CCCCC/C=C\C/C=C\CCCCCCCCOC1CN(CCCN(C)C)C[C@H]1OCCCCCCCC/C=C\C/C=C\CCCCC (stereo partly drawn) [Compound 59, (3R,4R)-1-(3-N,N-Dimethylaminopropyl)-3,4-bis((9Z,12Z)-octadec-9,12-dienyloxy)pyrrolidine]
The “Particle diameter of Preparetion” value of the first is higher: 151.8 nm for the first, 116.7 nm for the second.

same assay, conditions: preparations of Comparative Examples 1 to 8, made as in Example 118 with apo-b siRNA

Going from `CCCCCCCC/C=C\CCCCCCCC(=O)OCCN(C)CCOC(=O)CCCCCCC/C=C\CCCCCCCC` [Compound A-6, N-Methyl-N,N-bis(2-((Z)-1-oxooctadec-9-enyloxy)ethyl)amine, reference compound] to `CCCCC/C=C\C/C=C\CCCCCCCC(=O)OCCN(C)CCOC(=O)CCCCCCC/C=C\C/C=C\CCCCC` [Compound A-5, N-Methyl-N,N-bis(2-((9Z,12Z)-1-oxooctadec-9,12-dienyloxy)ethyl)amine, reference compound], the “average particle diameter of the liposomes in the preparation” value (from here on “average particle diameter”) falls from 139.5 nm to 136.4 nm.

First: CCCCCCCC/C=C\CCCCCCCCO[C@@H]1CN(Cc2ccccc2)C[C@H]1OCCCCCCCC/C=C\CCCCCCCC [Compound VI-4, (3R,4R)-1-Benzyl-3,4-bis((Z)-octadec-9-enyloxy)pyrrolidine, reference compound]
Second: CCCCC/C=C\C/C=C\CCCCCCCCO[C@@H]1CN(Cc2ccccc2)C[C@H]1OCCCCCCCC/C=C\C/C=C\CCCCC [Compound VI-3, (3R,4R)-1-Benzyl-3,4-bis((9Z,12Z)-octadec-9,12-dienyloxy)pyrrolidine, reference compound]
The “average particle diameter” value of the first is lower: 157.8 nm for the first, 167.8 nm for the second.

Going from `CCCCCCCC/C=C\CCCCCCCC(=O)OCC(C[N+](C)(C)C)OC(=O)CCCCCCC/C=C\CCCCCCCC.[Cl-]` (centres unmarked) [DOTAP, N-(2,3-di-(9-(Z)-octadecenoyloxy))-prop-1-yl-N,N,N-trimethylammonium chloride, reference compound] to `CCCCCCCC/C=C\CCCCCCCC(=O)O[C@@H]1CN(C)C[C@H]1OC(=O)CCCCCCC/C=C\CCCCCCCC` [Compound A-4, (3R,4R)-1-Methylpyrrolidine-3,4-diyl di((Z)-octadec-9-enoate), reference compound], the “average particle diameter” value rises from 104.0 nm to 131.1 nm.

In the case of `CCCCC/C=C\C/C=C\CCCCCCCC(=O)O[C@@H]1CN(C)C[C@H]1OC(=O)CCCCCCC/C=C\C/C=C\CCCCC` [Compound A-3, (3R,4R)-1-Methylpyrrolidine-3,4-diyl di((9Z,12Z)-octadec-9,12-dienoate), reference compound], the “average particle diameter” value is reported as 141.0 nm.
